Results on 21 compounds are retold here after PubChem BioAssay AID248 (DTP/NCI, 2004).

Several values for one entry are separate records, joined by “and”; a condition that tells them apart may be missing. Identical values can stand only once. Inconclusive results and toxic doses are left out.

The test relates to L1210 leukemia ip in BDF1 mice, survival T/C. The test can be described thus: NCI In Vivo Anticancer Drug Screen. Data for tumor model L1210 Leukemia (intraperitoneal) in B6D2F1 (BDF1) mice. Particulars: endpoint: mean survival time, higher = longer survival. An outline of the steps: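 Transplantable tumor model; survival measured in treated vs vehicle control mice. Value = treated/control.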

Setting [1] is: dose: 100.0 mg/kg/injection, schedule: Q01DX001 (ip), vehicle: carboxymethylcellulose (CMC).
[2] abbreviates: dose: 200.0 mg/kg/injection, schedule: Q01DX001 (ip), vehicle: carboxymethylcellulose (CMC).
[3] abbreviates: dose: 100.0 mg/kg/injection, schedule: Q01DX009 (ip), vehicle: Klucel (hydroxypropylcellulose) (HPC).
[4] abbreviates: dose: 100.0 mg/kg/injection, schedule: Q04DX003 (ip), vehicle: Klucel (hydroxypropylcellulose) (HPC).
Where [5] appears, read: dose: 200.0 mg/kg/injection, schedule: Q01DX009 (ip), vehicle: Klucel (hydroxypropylcellulose) (HPC).
Setting [6] is: dose: 200.0 mg/kg/injection, schedule: Q04DX003 (ip), vehicle: Klucel (hydroxypropylcellulose) (HPC).
Where [7] appears, read: dose: 400.0 mg/kg/injection, schedule: Q01DX009 (ip), vehicle: Klucel (hydroxypropylcellulose) (HPC).
Where [8] appears, read: dose: 400.0 mg/kg/injection, schedule: Q04DX003 (ip), vehicle: Klucel (hydroxypropylcellulose) (HPC).
The mark [9] stands for this setting: dose: 100.0 mg/kg/injection, schedule: Q01DX009 (ip), vehicle: saline with Tween-80.
Where [10] appears, read: dose: 200.0 mg/kg/injection, schedule: Q01DX009 (ip), vehicle: saline with Tween-80.
[11] abbreviates: dose: 100.0 mg/kg/injection, schedule: Q01DX001 (ip), vehicle: saline.
Setting [12] is: dose: 200.0 mg/kg/injection, schedule: Q01DX001 (ip), vehicle: saline.
Where [13] appears, read: dose: 100.0 mg/kg/injection, schedule: Q01DX001 (ip), vehicle: Klucel (hydroxypropylcellulose) (HPC).
Where [14] appears, read: dose: 200.0 mg/kg/injection, schedule: Q01DX001 (ip), vehicle: Klucel (hydroxypropylcellulose) (HPC).
Setting [15] is: dose: 400.0 mg/kg/injection, schedule: Q01DX001 (ip), vehicle: Klucel (hydroxypropylcellulose) (HPC).

Consider `On1cnc(=S)c2[nH]cnc21`, for which the T/C is 98 % of control under setting [1]; 98 % of control under setting [2]; 112 % of control (dose: 250.0 mg/kg/injection, schedule: Q01DX Z (ip), vehicle: carboxymethylcellulose (CMC)); 98 % of control (dose: 400.0 mg/kg/injection, schedule: Q01DX001 (ip), vehicle: carboxymethylcellulose (CMC)); 100 % of control (dose: 500.0 mg/kg/injection, schedule: Q01DX001 (ip), vehicle: carboxymethylcellulose (CMC)); 113 % of control (dose: 750.0 mg/kg/injection, schedule: Q01DX001 (ip), vehicle: carboxymethylcellulose (CMC)). In addition, the T/C was 156 % of control (dose: 750.0 mg/kg/injection, schedule: Q01DX Z (ip), vehicle: carboxymethylcellulose (CMC)) and 117 % of control (dose: 1000.0 mg/kg/injection, schedule: Q01DX001 (ip), vehicle: carboxymethylcellulose (CMC)).
On to `Cn1c(=O)c2c(nc(OCC3CCCCC3)n2C)n(C)c1=O`, for which the T/C by setting is: (dose: 50.0 mg/kg/injection, schedule: Q01DX001 (ip), vehicle: other) 94 % of control; (dose: 100.0 mg/kg/injection, schedule: Q01DX001 (ip), vehicle: other) 100 % of control; (dose: 200.0 mg/kg/injection, schedule: Q01DX001 (ip), vehicle: other) 94 % of control; (dose: 400.0 mg/kg/injection, schedule: Q01DX001 (ip), vehicle: other) 92 % of control.
As to `Cc1cccc(NC(=O)CCl)c1C`, the T/C reads like this: under setting [3], 100 % of control; under setting [4], 100 % of control; under setting [5], 87 % of control; under setting [6], 100 % of control.
`O=C(O)c1cccc(Cl)c1.[Ni]`: the T/C runs as follows: (dose: 25.0 mg/kg/injection, schedule: Q04DX002 (ip), vehicle: Klucel (hydroxypropylcellulose) (HPC)) 103 % of control; (dose: 50.0 mg/kg/injection, schedule: Q04DX002 (ip), vehicle: Klucel (hydroxypropylcellulose) (HPC)) 100 % of control; (dose: 100.0 mg/kg/injection, schedule: Q04DX002 (ip), vehicle: Klucel (hydroxypropylcellulose) (HPC)) 90 % of control.
For `COc1ccc(C2CCC(=O)CC2C(=O)O)cc1` (stereo not given), the T/C under setting [3] was 92 % of control; the T/C under setting [4] was 110 % of control; the T/C under setting [5] is 97 % of control; the T/C under setting [6] was 98 % of control; the T/C under setting [7] is 103 % of control; the T/C under setting [8] is 93 % of control.
Regarding `Nc1ccc(S(=O)(=O)S(=O)(=O)c2ccc(N)cc2)cc1`, the T/C (dose: 100.0 mg/kg/injection, schedule: Q04DX003 (ip), vehicle: saline with Tween-80) was 93 % of control; the T/C (dose: 200.0 mg/kg/injection, schedule: Q04DX003 (ip), vehicle: saline with Tween-80) was 86 % of control; the T/C (dose: 400.0 mg/kg/injection, schedule: Q04DX003 (ip), vehicle: saline with Tween-80) is 91 % of control.
`CC(=O)Nc1ccn(C2OC(CO)C(O)C2O)c(=O)n1` (stereo not given): the T/C (dose: 200.0 mg/kg/injection, schedule: Q01DX009 (ip), vehicle: saline) is 166 % of control and the T/C (dose: 400.0 mg/kg/injection, schedule: Q01DX009 (ip), vehicle: saline) was 163 % of control.
With `CCCCCCN(/N=C\C(=O)O)C(N)=O`, the T/C reads like this: (dose: 50.0 mg/kg/injection, schedule: Q01DX009 (ip), vehicle: saline with Tween-80) 103 % of control; under setting [9], 88 % of control; under setting [10], 98 % of control.
Consider `COc1ccc(OC)c(C(=O)CC2OCCO2)c1`, for which the T/C reads like this: under setting [11], 95 % of control; under setting [12], 95 % of control; (dose: 400.0 mg/kg/injection, schedule: Q01DX001 (ip), vehicle: saline) 105 % of control.
Turning to `CCOC(=O)C(C(=O)OCC)c1nc(=O)[nH]c(=O)[nH]1`, the T/C (dose: 100.0 mg/kg/injection, schedule: Q01DX Z (ip), vehicle: methylcellulose (MC)) is 97 % of control.
Regarding `O=C(Nc1ccc([N+](=O)[O-])cn1)Nc1ccccc1F`, the T/C was 92 % of control under setting [13]; 101 % of control and 90 % of control under setting [3]; 99 % of control under setting [4]; 89 % of control under setting [14]; 100 % of control and 87 % of control under setting [5]; 105 % of control under setting [6]. Moreover, the T/C under setting [15] was 92 % of control; the T/C under setting [7] is 101 % of control and 90 % of control; the T/C under setting [8] was 99 % of control.
Consider `O=c1oc2c(CN3CCCC3)c(O)ccc2c2c1CCCC2`, for which the T/C was 91 % of control under setting [1] and 98 % of control under setting [2].
On to `O=C(O)c1ccccc1[N+](=O)[O-]`, for which the T/C is 99 % of control under setting [13], 97 % of control under setting [14] and 96 % of control under setting [15].
With `O=[N+]([O-])C(Br)(c1ccccc1)S(=O)(=O)Cc1ccccc1` (stereo not given), the T/C is 95 % of control under setting [3]; 100 % of control under setting [4]; 101 % of control under setting [5]; 95 % of control under setting [6]; 102 % of control under setting [8].
`CC1CCC2(CC3C(CC(C4CCC5CC(O)CCC5(C)C4CC(=O)O)C3(C)O)O2)OC1` (stereo not given): the T/C was 89 % of control (dose: 75.0 mg/kg/injection, schedule: Q04DX003 (ip), vehicle: saline); 100 % of control (dose: 150.0 mg/kg/injection, schedule: Q04DX003 (ip), vehicle: saline); 87 % of control (dose: 300.0 mg/kg/injection, schedule: Q04DX003 (ip), vehicle: saline).
`c1ccc2c(c1)CCCc1cn[nH]c1-2`: the T/C is 98 % of control under setting [11] and 95 % of control under setting [12].
With `CC(Oc1cc(Cl)c(Cl)cc1Cl)C(=O)ON(C)C` (stereo not given), the T/C runs as follows: under setting [3], 100 % of control; under setting [5], 100 % of control.
In the case of `O=C(O)c1ccccc1S(=O)(=O)c1ccccc1`, the T/C under setting [9] is 109 % of control; the T/C under setting [10] is 101 % of control; the T/C (dose: 400.0 mg/kg/injection, schedule: Q01DX009 (ip), vehicle: saline with Tween-80) was 103 % of control.
As for `CCOP(=O)(OCC)N1C(=O)CCC1=O`, the T/C was 105 % of control (dose: 6.25 mg/kg/injection, schedule: Q04DX003 (ip), vehicle: saline); 100 % of control (dose: 12.5 mg/kg/injection, schedule: Q04DX003 (ip), vehicle: saline); 88 % of control (dose: 13.75 mg/kg/injection, schedule: Q01DX009 (ip), vehicle: saline); 103 % of control (dose: 25.0 mg/kg/injection, schedule: Q04DX003 (ip), vehicle: saline); 94 % of control (dose: 27.5 mg/kg/injection, schedule: Q01DX009 (ip), vehicle: saline); 102 % of control (dose: 35.0 mg/kg/injection, schedule: Q04DX003 (ip), vehicle: saline). Also, the T/C (dose: 55.0 mg/kg/injection, schedule: Q04DX003 (ip), vehicle: saline) is 101 % of control.
Turning to `c1ccc2c3c(ccc2c1)CCC/C3=N\N=C1/CCCc2ccc3ccccc3c21`, the T/C runs as follows: under setting [4], 90 % of control; under setting [6], 98 % of control; under setting [8], 92 % of control.
For `Cn1c(=O)n(C)c2ccccc21`, the T/C (dose: 50.0 mg/kg/injection, schedule: Q01DX009 (ip), vehicle: saline) is 110 % of control; the T/C (dose: 100.0 mg/kg/injection, schedule: Q01DX009 (ip), vehicle: saline) was 106 % of control; the T/C (dose: 100.0 mg/kg/injection, schedule: Q04DX003 (ip), vehicle: saline) was 108 % of control; the T/C (dose: 200.0 mg/kg/injection, schedule: Q04DX003 (ip), vehicle: saline) is 108 % of control.
